Data as given in publication PMC12724136, “Design of antibody structure-guided epitope vaccines in silico to induce potent immune responses against emerging viruses” (Journal of Virology, 2025).

Assays:
TiLV-positive IgM = assay: Indirect ELISA, affinity of synthetic peptides for TiLV-positive serum; assay type: binding, tilapia; conditions: peptides 0.1 to 100 μg/mL
Experimental: The indirect ELISA was used to determine the affinity of synthetic peptides for the scFv1 protein and TiLV-positive serum. For the affinity detection of scFv1, the synthetic peptides were diluted at different concentrations (0.01–100 μg/mL) and coated in a microplate. After blocking, scFv1 protein (50 µg/mL) was added and incubated for 2 h at 37°C. In order to reduce the interference of non-specific binding, 50 µg/mL of BSA protein was used as a control for the analysis of binding to the antigenic peptides. Subsequently, 100 µL of 6×His-tag mouse mAb was added to each well and incubated for 1 h, followed by the addition of 100 µL of HRP-conjugated goat anti-mouse IgG for another hour. The color development and OD measurements were performed as described previously. For the affinity detection of serum, 100 µL of positive serum (1:200) was added to each well. The primary antibody was then replaced with mouse anti-tilapia IgM mAb (Frdbio), while all other steps remained unchanged.

tilapia IgM = assay: Serum antibody levels of tilapia after immunization with epitope peptides (ELISA); assay type: in vivo, Nile tilapia (Oreochromis niloticus); conditions: for immunogenicity (serum IgM antibody levels) after primary and booster immunization: 20 µg peptide i.m., booster after 14 days, 7-42 days; for immunogenicity (serum antibody titer) after single immunization: 20 µg peptide i.m. with Freund's adjuvant, 7-28 days
Source text: Epitope vaccines usually need to be modified with Freund’s adjuvant (Beyotime) before immunization. Briefly, for a single immunization, the epitope peptide is mixed with an equal dose of complete Freund’s adjuvant and then administered to tilapia. For booster immunization, an equal dose of incomplete Freund’s adjuvant is fused with the epitope peptide before vaccination. For the S1, S3, and S10 epitope vaccine immunization programs, healthy Oreochromis niloticus were divided into six groups (70 fish per group) and vaccinated with 20 µg of peptide vaccine by intramuscular injection. During the 1–4 week immunization period, we collected four fish serum samples weekly for immunological analysis.
In the immunization experiments based on the P30-designed vaccine, healthy Nile tilapia were divided into four groups (70 fish per group) and injected intramuscularly with 20 µg of peptide vaccine to complete the primary immunization. After 14 days, the same dose of vaccine was administered again to complete the booster immunization. Serum and tissue samples were collected from 4 fishes in each group weekly after the primary immunization, for a total of 6 weeks. Furthermore, a PBS control was incorporated into both immunization experiments, and the immunization process was conducted in accordance with the aforementioned methodology.
Serum antibody levels after immunization were determined by indirect ELISA. Specifically, serum samples were diluted appropriately, coated to enzyme-labeled plates, and incubated overnight at 4°C. After being washed three times with PBST buffer, each well was incubated with mouse anti-tilapia IgM mAb (1:5,000) at 37°C for 1 h. After washing, each well was incubated with HRP-conjugated goat anti-mouse IgG (1:5,500) for an additional hour. Color development was carried out as described above.

scFv1 [1] = assay: Western blot, binding of S3 epitope peptide and mutants to GST-scFv1; design: species or system Nile tilapia (Oreochromis niloticus); conditions: PVDF membrane with GST-scFv1 incubated with S3 proteins 37°C 2 h; 6×His tag antibody
Experimental: The PET-N-GST-scFv1 plasmid was constructed using seamless cloning technology (Vazyme), and the protein was obtained through a prokaryotic expression system. The scFv1 protein was purified using GST resin (Beyotime) and stored after lyophilization. Similarly, S3-WT, S3-MuT-^Y386^A, S3-MuT-^R393^A, S3-MuT-^L398^A, and S3-MuT were expressed in prokaryotes using the pET32a plasmid. In the Western blot experiment, after blocking, the PVDF membrane containing GST-scFv1 blots was incubated with each of the five S3 proteins at 37°C for 2 h. Subsequently, the anti-6×His tag mouse mAb was used as the primary antibody, and HRP-conjugated goat anti-mouse IgG was used as the secondary antibody. The ECL color development steps were performed as described above.

scFv1 [2] = assay: Co-immunoprecipitation of epitope peptides with scFv1 in HEK293T cells; assay type: cell-based, Nile tilapia (Oreochromis niloticus); conditions: for Co-IP with scFv1, His-tag system: His-tagged peptide and Flag-scFv1 co-transfected in HEK293T; for Co-IP with scFv1, GFP tag system: pEGFP-peptide and pCMV-Flag-scFv1 co-transfected in HEK293T, 48 h
Experimental: Protein samples were extracted following the co-transfection of HEK293T cells with plasmids containing P30, S390F, G394K, and scFv1 for 48 h, respectively. Subsequent Co-IP assays were performed using the kit (Beyotime) in accordance with the provided protocol. In brief, TBS-washed protein A + G magnetic beads were incubated with GFP-tagged IgG2a mAb (1:3,000, Proteintech) for 1 h at room temperature. Subsequently, the samples were incubated at 4°C overnight. Following the washing of the beads with cell lysates containing protease inhibitors, protein elution was completed with SDS-PAGE loading buffer (Solarbio) for protein blotting. In the Western blot analysis, the GFP-tagged IgG2a mAb (1:3,000) and the Flag-tagged mouse mAb (1:2,000, Beyotime) were employed to identify the IP and input protein samples, respectively. Furthermore, all samples were characterized with a reference protein antibody (β-actin) as a standard control. Enzyme-labeled secondary antibodies consisted of HRP-conjugated goat anti-mouse IgG (1:4,000). The bands were visualized using the ECL Plus hypersensitive luminescent solution (Solarbio) and photographed with a chemiluminescence program. In addition, the His tag system was also used to verify the interaction between epitope peptides, such as P30 and scFv1. Plasmids encoding P30, S390F, and G394K fused with His tags and the plasmid encoding scFv1 fused with a Flag tag were co-transfected into HEK293T cells, respectively. The His-tag monoclonal antibody (1:500, Proteintech) was bound to A + G magnetic beads and used to detect the interaction, and all other operation steps were performed as described above.

scFv1 [3] = assay: Yeast two-hybrid assay of epitope peptides with scFv1; assay type: cell-based, Nile tilapia (Oreochromis niloticus); conditions: pGBKT-scFv1 bait, pGADT-peptide; Y2Hgold; 96 h
Experimental: The pGBKT-scFv1 bait plasmid was transformed into Y2Hgold yeast competent cells (WEIDI) and cultured in SD-deficient medium (Beijing Zoman Biotechnology Co., Ltd.) to confirm the absence of self-activation. Subsequently, pGADT-P30, pGADT-S390F, and pGADT-G394K plasmids, along with the pGBKT-scFv1 bait plasmid, were co-transformed into Y2Hgold yeast competent cells. The cells were then cultured on LT-deficient SD and LTHA-deficient SD medium for 48–96 h to observe the expression of the reporter genes. Additionally, the pGADT-T plasmid was co-transformed with the pGBKT-53 and pGBKT-lam plasmids and cultured as positive and negative controls, respectively.

scFv1 [4] = assay: Cellular co-localization of epitope peptides with scFv1 in HEK293T cells; assay type: cell-based, Nile tilapia (Oreochromis niloticus); conditions: pEGFP-peptide and pCMV-DsRed-scFv1 in HEK293T, 48 h, confocal
Experimental: The pEGFP-P30, S390F, and G394K plasmids, along with the pCMV-C-DsRed-scFv1 plasmid, were co-transfected into HEK293T cells and cultured for 48 h. Afterward, the cells were fixed with 4% paraformaldehyde, permeabilized, and stained with DPAI (Beyotime), which contains an anti-fluorescence quencher. The expression and co-localization of proteins in cells were observed using confocal fluorescence microscopy.

[5] = molecular target: T1, S10-Mut epitope peptide (S10 55–66, alanine mutant) (tilapia lake virus (TiLV)); assay: ELISA; conditions: both partners purified
T1 construct: source: synthetic peptide (solid phase, SynthBio)
T1 peptide: NIEAGAAVALEM

[6] = molecular target: T2, S3-WT epitope peptide (S3 385–400) (tilapia lake virus (TiLV)); assay: ELISA; conditions: both partners purified
T2 construct: source: synthetic peptide (solid phase, SynthBio)
T2 peptide: GYQLASEIRGTIPLSS

[7] = molecular target: T3, S1-WT epitope peptide (S1 231–250) (tilapia lake virus (TiLV)); assay: ELISA; conditions: both partners purified
T3 construct: source: synthetic peptide (solid phase, SynthBio)
T3 peptide: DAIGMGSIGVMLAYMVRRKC

[8] = molecular target: T4, S1-Mut epitope peptide (S1 231–250, alanine mutant) (tilapia lake virus (TiLV)); assay: ELISA; conditions: both partners purified
T4 construct: source: synthetic peptide (solid phase, SynthBio)
T4 peptide: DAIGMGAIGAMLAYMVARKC

[9] = molecular target: T5, S10-WT epitope peptide (S10 55–66) (tilapia lake virus (TiLV)); assay: ELISA; conditions: both partners purified
T5 construct: source: synthetic peptide (solid phase, SynthBio)
T5 peptide: NIEWGDEVDLEM

[10] = molecular target: T6, S390F epitope peptide (P30 with S390F), synthetic (tilapia lake virus (TiLV), S390F (stands in the printed letters)); assay: SPR; conditions: both partners purified
T6 construct: source: synthetic peptide (solid phase, SynthBio)
T6 peptide: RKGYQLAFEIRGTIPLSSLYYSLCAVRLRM

Molecule: RKGYQLASEIRGFIPLSSLYYSLCAVRLRM [T395F]
- affinity to TiLV-specific positive serum (TiLV-positive IgM): did not show improved affinity compared to P30
- immunogenicity (serum IgM antibody levels) after primary and booster immunization (tilapia IgM): failed to show significantly improved immunogenicity

Molecule: GAQLASEIAGTIPASS [S3MuT]
- immunogenicity (serum antibody titer) after single immunization (tilapia IgM): lower antibody stimulation level
- binding to GST-scFv1 by Western blot (scFv1 [1]): did not show the protein

Molecule: NIEAGAAVALEM [S10MuT]
- immunogenicity (serum antibody titer) after single immunization (tilapia IgM): lower antibody stimulation level

Molecule: RKGYQLASEIRGTIPLSSLYYSLCAVRLRM [P30]
- Co-IP with scFv1, His-tag system (scFv1 [2]): showed interactions with scFv1
- Co-IP with scFv1, GFP tag system (scFv1 [2]): able to bind to the antibody
- yeast two-hybrid growth on LTHA-deficient SD medium (scFv1 [3]): exhibited plaque growth
- co-localization with scFv1 in cells (scFv1 [4]): co-localized with the antibody

Molecule: DAIGMGAIGAMLAYMVARKC [S1MuT]
- immunogenicity (serum antibody titer) after single immunization (tilapia IgM): lower antibody stimulation level

Molecule: RKGYQLASEIRGTIPLSSLYYYLCAVRLRM [S404Y]
- affinity to TiLV-specific positive serum (TiLV-positive IgM): did not show improved affinity compared to P30
- immunogenicity (serum IgM antibody levels) after primary and booster immunization (tilapia IgM): failed to show significantly improved immunogenicity

Molecule: DAIGMGSIGVMLAYMVRRKC [S1WT]
- immunogenicity (serum antibody titer) after single immunization (tilapia IgM): robust immune responses

Molecule: NIEWGDEVDLEM [S10WT]
- immunogenicity (serum antibody titer) after single immunization (tilapia IgM): robust immune responses

Molecule: RKGYQLASEIRKTIPLSSLYYSLCAVRLRM [G394K]
- Co-IP with scFv1, His-tag system (scFv1 [2]): did not
- Co-IP with scFv1, GFP tag system (scFv1 [2]): negative in the Co-IP reaction
- yeast two-hybrid growth on LTHA-deficient SD medium (scFv1 [3]): did not exhibit any growth
- co-localization with scFv1 in cells (scFv1 [4]): failed to bind to the antibody

B1: scFv1, prokaryote-expressed (pET32a-scFv1) (scFv)
scFv: MSHRLTCAYSGFSSDIHAVWVRQAAGKGLEWIAYISDSSAYIYYSQSVRGRFTISRDNSRKQVYLQMNSLTTEDSAVYYCTREGSGFAFDYWGKGTGGGGSGGGGSGGGGSVTISATGSSNIGADLSWYLQKTGETPKLLIYKASTRSSGTPPRFSGSTSGSQYTLTISGVQAEDAGDYYCLGDHGGGALTFGGGTK
notes: also called antibody scFv1; source: E. coli BL21, prokaryotic expression (pET32a-scFv1); freeze-dried, dissolved in PBS
- binding result [5]: binds
- binding result [6]: binds
- binding result [7]: binds
- binding result [8]: binds
- binding result [9]: binds
- Kd [10]: 573 nM

B2: scFv1, expressed in CHO cells (pcDNA3.1-scFv1) (scFv)
scFv: B1 scFv
notes: also called eukaryote-expressed scFv1; source: CHO cells, eukaryotic expression (pcDNA3.1-scFv1)
- binding result [5]: binds
- binding result [6]: binds
- binding result [7]: binds
- binding result [8]: binds
- binding result [9]: binds
